Assay results as given in US20120282245A1, “BIOMARKERS AND ASSAYS FOR THE TREATMENT OF CANCER” (BIOGEN IDEC MA INC., priority 2006, published 2012).

Tests used:
canonical NFκB1 pathway = experiment: Western blot for phosphorylated IκBα and RelA (canonical NFκB1 activation); assay type: cell-based; details: DLD-1 and WiDr cells, TNFα 20 ng/ml
Protocol: (§1) DLD-1 and WiDr adenocarcinoma cell lines were obtained from ATCC (Manassas, Va.), and cultured in MEM Earle's medium supplemented with 10% FBS. Antibodies against LTβR (N-15), TRAF3 (H-20 and H-122), TRAF2 (H-249), and NFκB2 (C-5) were obtained from Santa Cruz Biotechnology (Santa Cruz, Calif.). Antibodies against phosphorylated IκBα (5A5), phosphorylated RelA, and NIK were purchased from Cell Signaling Technologies (Beverly, Mass.).
LTβR was activated using 100 ng/ml of a humanized bi-specific, activating antibody (BS-1) developed at Biogen Idec, Inc. TNFα was used at a concentration of 20 ng/ml. During stimulation, cells were kept in a 37° C. incubator for indicated times.
(§2) Cells were treated for 10 minutes at 37° C. with media or activating antibody (BS-1) and washed twice in ice-cold PBS with protease and phosphatase inhibitors, followed by lysis by scraping in ice-cold lysis buffer [50 mM PIPES pH 6.8, 100 mM KCl, 2 mM MgCl2, 1 mM EGTA, 0.2% NP-40, and 10% Glycerol, supplemented with Complete EDTA-free protease inhibitor cocktail (Roche, Indianapolis, Ind.), 10 mM Sodium Fluoride, and 100 μM Sodium Orthovanadate]. […] Blots were developed using SuperSignal chemiluminescent detection substrates (Pierce), and detected on Biomax X-ray films (Kodak, Rochester, N.Y.) and/or directly on a Kodak ImageStation 2000R luminescence detector.

TRAF3 = experiment: Western blot for TRAF3 protein level; assay type: cell-based; details: DLD-1 cells; BS-1 100 ng/ml or TNFα 20 ng/ml
Protocol: as §1
as §2, with “Orthovanadate]. Lysates were centrifuged at 14000 RPM for 30 minutes at 4° C., and supernatants were pre-cleared with normal goat IgG-agarose beads (Sigma, St. Louis, Mo.) by incubating on a rotator at 4° C.” for “Orthovanadate].”, “detector. […]” for “detector.”

TNFα
activation of NFκB1 (canonical NFκB1 pathway): identical in both cell-lines | TRAF3 level after stimulation (TRAF3): increases the levels of TRAF3
